The values that follow come from patent publication US10899962B2, “Camera module, lubricant composition, and electronic device” (Samsung Electro-Mechanics Co., Ltd., priority 2018, dated 2021).

This data set in a line: solubility of the fluorinated fluorescent material at varied concentrations (FIG. 8, FIG. 11). Format: physicochemical. The settings on record: concentrations shown 0.25 wt %, 0.5 wt %, and 1 wt %. From the text: More specifically, when using a compound represented by Chemical Formula 1, for example, a compound represented by Chemical Formula 1-1 for the fluorinated fluorescent material, the fluorinated fluorescent material is included, for example, in an amount from 0.1 wt % to less than 0.5 wt %, or even, for example, in an amount from 0.1 wt % to 0.3 wt %. This can be confirmed from FIG. 8 to FIG. 10. […] Referring to the drawings, it can be seen that solubility issues occur in concentrations of 0.5 wt % or higher. FIG. 9 and FIG. 10 show the fluorescence of a lubricant composition containing 0.25 wt % of a compound represented by Chemical Formula 1-1. […] From the drawings, it can be seen that the presence of the lubricant can be easily detected after application of the lubricant composition.
Furthermore, when using a compound represented by Chemical Formula 2, for example, a compound represented by Chemical Formula 2-1 for the fluorinated fluorescent material, the fluorinated fluorescent material is included, for example, in an amount from 0.01 wt % to less than 1.0 wt %, or even included, for example, in an amount from 0.03 wt % to 0.15 wt %. This can be confirmed from FIG. 11. […] Referring to the drawing, it can be seen that solubility issues occur in concentrations of 1.0 wt % or higher.

Consider `CCN(CC)c1ccc2c(C)cc(=O)oc2c1` [Chemical Formula 1-1], for which the “concentrations in which solubility issues occur” value is not below 0.5 wt %.
